Data as given in paper PMC9230671, “Fluorochrome Selection for Imaging Intraoperative Ovarian Cancer Probes” (Pharmaceuticals, 2022).
Marks after values point to notes of the source that are not given here.

How the values were obtained:
OVCAR-3 xenograft tumors = experiment: NIR fluorescence imaging / biodistribution in OVCAR-3 s.c. xenograft models; format: in vivo, NSG mice; details: for tumor-to-background ratio (TBR): OVCAR-3 s.c. NSG mice, 100 µL of 500 µM i.v., after 24 h; for clearance pattern (organ): ex vivo NIR FLI 6 h after 500 µM i.v., OVCAR-3 mice
Experimental: To assess the capacity of both conjugates to visualize ovarian xenograft tumors “in vivo” and evaluate accumulation and clearance behavior of the conjugates, kinetic imaging was performed at six different time-points. Subcutaneously engrafted OVCAR-3 NSG mice were injected with 100 µL of 500 µM RR11 or 23 (MSA14) intravenously into the tail vein (Figure 3). […] Tumor-specific fluorescence was obtained 4, 6, and 24 h after RR11 injection, with a mean tumor-to-background ratio (TBR) of 1.74 after 24 h. In OVCAR-3 bearing NSG mice (n = 3), injected with 23 (MSA14), high liver signals (ventral view, #) were obtained at all time points with high compound accumulation in the tumors at 24 h (*, Figure 3B). The best TBR of 1.44 was achieved after 24 h. Residual background fluorescence was predominantly observed in the spine and limbs as well as in the excretion organs.
Following the biodistribution over time “in vivo”, we assessed the accumulation of the compounds “ex vivo” at 6 h. In Figure 4A, RR11-induced tumor-specific signal, along with high fluorescence in kidneys, gallbladder, stomach, and lungs, can be observed. […] The higher gastrointestinal fluorescence signal in RR11-imaged mice can derive from auto-fluorescent alfalfa containing diet, which is acquired in the lower wavelength of RR11. The main differences between the accumulation and clearance behavior are marked with an arrow, indicating two different clearance patterns of the compounds through liver (23, MSA14) and kidney (RR11). Finally, the fluorescence of 23 (MSA14) was evaluated in a clinically compatible intraoperative setting using the FLARE® system to assess the suitability of the COX-1 targeted NIR compound for FIGS and its potential clinical translation (Figure 4B). The “in vivo” and “ex vivo” intraoperative images confirm the results from Figure 3B and Figure 4A. […] While the tumor fluorescence intensities were higher than those of kidneys, the fluorescence intensities in the gallbladder and lungs were the highest.
Female NOD-scid IL2rγ^null (NSG) mice, aged 6 to 25 weeks were maintained under defined floral conditions and no more than five mice were housed in individually ventilated (HEPA-filtered air) cages, kept on a 12 h dark/night schedule at a constant temperature of 21 °C and at 50% relative humidity at the University of Bergen’s animal facility. Observations of body weight and general condition including activity levels, appearance, and food intake were monitored twice weekly, and humane endpoints were defined with the use of score sheets. When indicated, animals were euthanized according to institutional guidelines. […]

[1] = Fluorescence property measurements (absorption/emission spectra); format: physicochemical; parameters: Stokes Shift: unit not given here
Experimental: The λabs and λem, of the target compounds were measured in aqueous solution (phosphate-buffered saline solution, PBS) at the concentration of 10^−5 M (Table 1).
Fluorescence spectra of all target compounds were determined in PBS and EtOH solutions (Table 1) with a Tecan Infinite 200 Microplate Reader. In all experiments, the excitation and the emission bandpass were set at λ = 5 nm. The emission spectra were obtained from λ = 280 to 850 nm, with excitation set at the appropriate excitation wavelength. Absorption spectra were recorded with a Shimadzu UV-1800 spectrophotometer.

COX-2 = molecular target: T1, COX-2 (Homo sapiens, UniProt P35354); experiment: COX-2 inhibition, COX (ovine/human) inhibitor screening assay kit; format: biochemical; details: for COX-2 inhibitory activity (in words): up to 50 µM final concentration
T1 construct: purchased Cayman Chemicals (bought through Sigma-Aldrich) 560131
T1 sequence (P35354 18-604): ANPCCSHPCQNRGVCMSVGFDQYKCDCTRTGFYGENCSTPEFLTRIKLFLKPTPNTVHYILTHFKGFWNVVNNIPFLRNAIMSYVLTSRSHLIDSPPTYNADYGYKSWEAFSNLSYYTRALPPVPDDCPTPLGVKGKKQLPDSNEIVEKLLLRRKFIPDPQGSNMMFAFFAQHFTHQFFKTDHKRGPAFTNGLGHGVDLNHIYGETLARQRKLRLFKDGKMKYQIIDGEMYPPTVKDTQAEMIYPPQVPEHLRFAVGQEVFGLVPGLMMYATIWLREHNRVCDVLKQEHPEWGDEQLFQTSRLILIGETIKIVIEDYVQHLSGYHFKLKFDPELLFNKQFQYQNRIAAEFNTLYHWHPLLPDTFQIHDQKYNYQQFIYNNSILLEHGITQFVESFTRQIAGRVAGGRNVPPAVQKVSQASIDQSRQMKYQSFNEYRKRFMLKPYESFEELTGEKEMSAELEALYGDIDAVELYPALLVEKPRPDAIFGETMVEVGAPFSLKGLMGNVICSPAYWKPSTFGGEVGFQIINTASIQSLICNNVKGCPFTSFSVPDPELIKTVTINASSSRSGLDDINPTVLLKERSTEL
Experimental: Cell culture reagents were purchased from Euroclone (Milan, Italy). COX (ovine/human) inhibitor screening assay kit (Catalog No. 560131, Cayman Chemicals, Ann Arbor, MI, USA) was purchased from Sigma-Aldrich, Burlington, MA, USA. […] The other reagents were purchased from Sigma-Aldrich, Burlington, MA, USA.
The COX-1/2 inhibition screening experiments were carried out according to the manufacturer’s instructions. The plate was incubated for 60 min at r.t. under shaking and read with the Tecan Infinite 200 Microplate Reader at λ = 405 nm.
The graph between percent inhibition of the enzyme and corresponding concentration of the compound provided IC50 values for the probe compounds.

[2] = ethanol (10^−4 M), two bands, listed as 23

Row | Structure (SMILES) | tumor-to-background ratio (TBR) (OVCAR-3 xenograft tumors) | clearance pattern (organ) (OVCAR-3 xenograft tumors) | λabs [1, 2] [nm] | λem [1, 2] [nm] | IC50 (COX-2) [nM] | COX-2 inhibitory activity (in words) (COX-2) | COX-2 inhibitory activity (in words) (COX-2; listed as 23) | Stokes Shift ([1]; ethanol (10^−5 M)) | λabs ([1]; ethanol (10^−5 M)) | λem ([1]; ethanol (10^−5 M)) | COX-2 % inhib. (COX-2; at 50 µM compound final concentration) [%]
1 | CCN1/C(=C/C=C/C=C/C=C/C2=[N+](CCCCCC(=O)NCCCCNC(=O)Cc3onc(-c4ccc(OC)cc4)c3-c3ccc(OC)cc3)c3ccc4ccccc4c3C2(C)C)C(C)(C)c2c1ccc1ccccc21 [23 (MSA14), 3-(6-(4-(2-(3,4-Bis(4-methoxyphenyl)isoxazole-5-yl)acetamido)butyl)amino-6-oxohexyl)-2-[7-(1,3-dihydro-1,1-dimethyl-3-ethyl-2H-benz[e]indolin-2-yl-idene)-1,3,5-heptatrienyl]-1,1-dimethyl-3-(6-carboxilato-hexyl)-1H-benz[e]indolium chloride] | 1.44 | liver | 770 | 822 | > 50000 | did not inhibit | almost inactive | – | – | – | –
2 | COc1ccc(-c2noc(CC(=O)NCCCCNc3cc4[o+]c5cc(N(C)C)ccc5nc4c4ccccc34)c2-c2ccc(OC)cc2)cc1.[Cl-] [RR11, N-[4-(9-dimethylimino-9H-benzo[a]phenoxazin-5-ylamino)butyl]-2-(3,4-bis(4-methoxyphenyl)isoxazol-5-yl)acetamide chloride, reference compound] | 1.74 | kidney | – | – | 2400 | – | – | 62 | 610 ^b nm | 672 ^b nm | 64
